Laboratory results: patent US12485110B2, “Use of ergothioneine for extending lifespan or improving healthspan” (NANJING NUTRABUILDING BIO-TECH CO., LTD., priority 2022, dated 2025)

What was measured:
C. elegans [1] = assay: Growth and development (growth and toxicity) assay; type: in vivo
Description: C. elegans was used in this study because it has advantages including having all the physiological properties of an animal, the ability to replicate human diseases, and a fast life cycle. The body of C. elegans is encased in a selectively permeable cuticle that only permits some compounds to be absorbed efficiently through the skin, so the most reliable mechanism for delivering compounds to the worms is through ingestion. Water-soluble compounds permeate the media and food and are readily taken up by the worms.
Making culturing plates with ergothioneine: C. elegans is usually grown in the laboratory using E. coli as a food source. Nematode Growth Medium (NGM) plates have been prepared by aseptically pouring NGM agar into petri plates. Ergothioneine was dissolved in water to make a working solution of 0.5 M and then mixed with E. coli liquid culture before seeding on NGM agar plates. The seeding spots were dried slowly, allowing ergothioneine to diffuse into the food bacteria and the agar for at least 24 hours before worms are introduced. The indicated ergothioneine dosages (0, 640 nM, 3.2 μM, 16 μM, 80 μM, 400 μM, 2 mM, and 10 mM) are based on the total volume of the plates.
High-resolution imaging and automated detection were used to precisely measure the growth rate of C. elegans worms from hatching to the first day of adulthood (total of 4 days). The C. elegans growth and development assay is highly sensitive and widely used in toxicology studies. Performing this test over a range of doses helps to identify a set of doses that have a physiological impact and exclude dose ranges that are likely too toxic to benefit lifespan.

C. elegans [2] = assay: Movement and healthspan analysis (worm activity, morphology, circularity); type: in vivo
Description: Worm movement was tracked from the images acquired by the ALM during the lifespan assay. Worm size and movement features were extracted and analyzed using custom software.
To measure healthspan, active worms were identified using the ALM scanner images from the lifespan assay (see Example 2). The worms' spatial location on the plate and their morphology were quantified throughout their lifespan to assess healthspan.
Worm Activity serves as a proxy for animal health. Changes in spatial distribution of the worms between time points is used to derive aggregate movement for the population over time. Worm Activity is described by two complementary measurements of aggregate movement, Centroid Distance and Spatial Distribution: • Centroid Distance calculates a geometric center for each individual worm, and then measures the minimum collective distance that a group of worms moved between time points. It achieves measurement of the changes in spatial distribution between time-points. • Spatial Distribution uses changes in worm contours between time points to measure the changes in the spatial distribution of the worms' bodies. The normalized distribution of these distances in the population provides a measure of how much the group of worms altered their positions and posture on the plate between two time-points.
For both of these Activity metrics, a plot with higher numbers indicates good health, and all measures are normalized to fall between 0 and 1.
Worm morphology is measured from the worm contours detected in the images. In the process of aging, worms become shorter and stouter over time and their shape is an indicator of their overall health and biological age. The Length is calculated from the central spline fitted to the worm contour and Width is measured from each worm's widest point. The worms' posture also changes with age as they lose the ability to maintain an elongated position. Average Circularity measures how close the shape and posture come to being enclosed by a circle.
Each of these measures are obtained by averaging data for all active worms detected on a plate, then averaging across different replicate plates of the same condition. All measurements are based on worms that are still alive and moving at the time of quantification. All measures start when worms are placed on the scanner at day 3 of adulthood.
Average Circularity. The Average Circularity Assay indicates worm heath by describing how closely the shape and posture of the worms is enclosed within a circle. Healthy, active worms maintain an elongated, albeit sinusoidal posture. As unhealthy and aged worms lose muscle function, they increasingly adopt a curled, bunched, or folded state in addition to a stout and wrinkled morphology.

SMILES: C[N+](C)(C)[C@@H](Cc1c[nH]c(=S)[nH]1)C(=O)[O-] [Ergo, Ergothioneine]
- Number and size of worms (FIG. 1) (C. elegans [1]; 16 μM and 400 μM, L4 and day 1 adult): comparable number and size
- Number of worms (FIG. 1) (C. elegans [1]; 10 mM, L4 and day 1 adult stages): less worms
- Size of young adults (FIG. 2) (C. elegans [1]; 10 mM, day 1 adult stage): smaller than normal
- Growth rate (worm size, FIG. 2) (C. elegans [1]; concentrations up to 2 mM, day 1 adult stage): largely unaffected
- Growth rate (worm size, FIG. 2) (C. elegans [1]; concentrations up to 10 mM, L4 stage): largely unaffected
- Aggregate movement (Centroid Distance and Spatial Distribution, FIGS. 5A-5B) (C. elegans [2]; 5 mM, over the duration of lifespan): more vigorous movement
- Average circularity (FIG. 7) (C. elegans [2]; ergothioneine-treated worms vs control, peaking at around 16 days): only slight differences
- Worm morphology (length, width, area, FIGS. 6A-6C) (C. elegans [2]; up to the 5 mM dosage, over the lifespan): did not produce detectable changes in morphology
